Laboratory results from PubChem BioAssay (NCI).
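Where inhibition never reached the appropriate level, the endpoint shown equals the highest concentration tested. Otherwise, values were interpolated linearly from a five-concentration, 48-hour dose response in 96-well plates. TGI is the concentration that stops growth completely.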

What was measured:
Assay in all cases: NCI tumour cell line growth inhibition, 48 h
SK-OV-3 ovarian = tested on: SK-OV-3 ovarian
UACC-62 melanoma = tested on: UACC-62 melanoma
HOP-18 NSCLC = tested on: HOP-18 NSCLC
DLD-1 colon = tested on: DLD-1 colon
RXF 393 renal = tested on: RXF 393 renal
OVCAR-4 ovarian = tested on: OVCAR-4 ovarian
HCC-2998 colon = tested on: HCC-2998 colon
KM12 colon = tested on: KM12 colon
HCT-15 colon = tested on: HCT-15 colon
K-562 leukemia = tested on: K-562 leukemia
A549 NSCLC = tested on: A549 NSCLC
CCRF-CEM leukemia = tested on: CCRF-CEM leukemia
SK-MEL-2 melanoma = tested on: SK-MEL-2 melanoma
RXF-631 renal = tested on: RXF-631 renal
HOP-62 NSCLC = tested on: HOP-62 NSCLC
NCI-H522 lung = tested on: NCI-H522 lung
M14 melanoma = tested on: M14 melanoma
UO-31 renal = tested on: UO-31 renal
CAKI-1 renal = tested on: CAKI-1 renal
TK-10 renal = tested on: TK-10 renal
MOLT-4 leukemia = tested on: MOLT-4 leukemia
UACC-257 melanoma = tested on: UACC-257 melanoma
RPMI-8226 leukemia = tested on: RPMI-8226 leukemia
KM20L2 colon = tested on: KM20L2 colon
HL-60(TB) leukemia = tested on: HL-60(TB) leukemia
786-0 renal = tested on: 786-0 renal
NCI-H460 lung = tested on: NCI-H460 lung
A498 renal = tested on: A498 renal
COLO 205 colon = tested on: COLO 205 colon
EKVX NSCLC = tested on: EKVX NSCLC
ACHN renal = tested on: ACHN renal
IGROV1 ovarian = tested on: IGROV1 ovarian
SK-MEL-5 melanoma = tested on: SK-MEL-5 melanoma
DMS 114 small cell lung = tested on: DMS 114 small cell lung
OVCAR-5 ovarian = tested on: OVCAR-5 ovarian
M19-MEL melanoma = tested on: M19-MEL melanoma
SF-539 CNS = tested on: SF-539 CNS
SNB-75 CNS = tested on: SNB-75 CNS
OVCAR-3 ovarian = tested on: OVCAR-3 ovarian
SF-268 CNS = tested on: SF-268 CNS
XF 498 CNS = tested on: XF 498 CNS
OVCAR-8 ovarian = tested on: OVCAR-8 ovarian
NCI-H226 lung = tested on: NCI-H226 lung
SW-620 colon = tested on: SW-620 colon
HOP-92 NSCLC = tested on: HOP-92 NSCLC
U251 CNS = tested on: U251 CNS
NCI-H23 lung = tested on: NCI-H23 lung
MALME-3M melanoma = tested on: MALME-3M melanoma
SNB-19 CNS = tested on: SNB-19 CNS
SF-295 CNS = tested on: SF-295 CNS
SK-MEL-28 melanoma = tested on: SK-MEL-28 melanoma
HCT-116 colon = tested on: HCT-116 colon
SN12C renal = tested on: SN12C renal
SR leukemia = tested on: SR leukemia
SNB-78 CNS = tested on: SNB-78 CNS
LOX IMVI melanoma = tested on: LOX IMVI melanoma
DMS 273 small cell lung = tested on: DMS 273 small cell lung
LXFL 529 NSCLC = tested on: LXFL 529 NSCLC

Measured: TGI

N#CC12CC3(CCC1CCC1(C2)OCCO1)OCCO3 (stereo not drawn)
> 100 µM: all assays above
